The nature of the data set: gradient 5% acetonitrile 3 min, to 50% in 2 min, to 85% in 15 min, held 3 min, 100 µL/min. As to conditions: column: Zorbax Extend-C18 2.1 x 50 mm; eluents: water / acetonitrile, 0.1% formic acid. A digest of the protocol: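 Standards, all pure, were combined into mixtures of ~100 molecules and run at 100 μL/min on a Zorbax Extend-C18 column (2.1 × 50 mm, 1.8 μm) with water and acetonitrile, each containing 0.1% formic acid. A coupled quadrupole time-of-flight mass spectrometer operated in positive and negative ionization mode. Retention time values come from computationally picked adduct peaks, each inspected manually.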
In turn, `COC(=O)c1ccc2c(=O)n(-c3ccc(C)c(F)c3)c(N3CCCC3)nc2c1` returned an RP-LC retention time of 1020 s.
For `Cc1nc(-c2ccc(F)cc2)sc1C(=O)N1CCC(CC(=O)N(C)Cc2ccco2)CC1`, the RP-LC retention time was 890 s.
The value for `Cc1nc(-c2cn(C)c3ncccc23)sc1C(=O)Nc1cc(F)ccc1F` was 944 s; that for `Cn1c(=O)sc2cc(S(=O)(=O)N3CCC(C(=O)Nc4cccc(Cl)c4)CC3)ccc21` was 953 s.
Regarding `COc1cccc(Oc2nccn3c(=O)n(CC(=O)Nc4cccc(C(F)(F)F)c4)nc23)c1`, the RP-LC retention time is 919 s.
Next, `O=C(Nc1ccc(Cl)cc1)C1CCCN1S(=O)(=O)c1cccc2nsnc12` (configuration not stated): 924 s; `O=C(Cn1cccc1-c1nnc(C2CCC2)o1)Nc1ccc(F)c(F)c1`: 945 s.
Next, `CCCCNC(=O)c1nc(Nc2cccc(C)c2)c2ccccc2n1`: 858 s; `COCCOC(=O)C1=C(C)NC2=C(C(=O)CC(C)(C)C2)C1c1cccc(OC)c1OC` (configuration not stated): 787 s.
The compound `COc1ccc(N2CCN(C(=O)c3ccc(S(=O)(=O)N4CCCC4)cc3)CC2)nn1` gave an RP-LC retention time of 579 s.
In turn, `CC1=C(c2ccccc2)S(=O)(=O)N=C1N1CCCN(C(=O)c2sccc2C)CC1` returned an RP-LC retention time of 721 s.
Compound `Cc1nn(CC(=O)NCCC2=CCCCC2)c(=O)c2c(-n3cccc3)n(-c3cccc(F)c3)nc12` showed an RP-LC retention time of 1090 s.
The compound `Cn1nc(N2CCC(NC(=O)CCC3CCCC3)C2)ccc1=O` (configuration not stated) returned an RP-LC retention time of 716 s.
Compound `CCOC(=O)c1[nH]c(C)c(CCC(=O)N2CCC(C(=O)NC3CCCCCC3)CC2)c1C` showed an RP-LC retention time of 823 s.
The value for `O=C(NCCn1c(C(F)(F)F)nc2cccnc21)c1ccc(Br)o1` was 740 s; that for `COC(=O)c1ccc(C2CC(=O)NC3=C2C(=O)CC(c2ccccc2Cl)C3)cc1` (configuration not stated) was 881 s; that for `COCCc1noc([C@@H]2CC(F)(F)CN2C(=O)c2ccco2)n1` was 716 s.
Turning to `COc1ccc(OC)c(CNC(=O)C2CCCN(c3ccc(=O)n(-c4cccc(F)c4)n3)C2)c1` (configuration not stated), the RP-LC retention time was determined as 827 s.
In turn, `NS(=O)(=O)c1ccc(CNC(=O)CCCn2cnc(-c3ccc(F)cc3)cc2=O)cc1` had an RP-LC retention time of 652 s.
The compound `COC(=O)c1cnc(N2CCN(c3ccccc3F)CC2)c2ccccc12` returned an RP-LC retention time of 1240 s.
Next, `CCOC(=O)C1=C(CN2CC(C)CC(C)C2)NC(=O)NC1c1ccc(Cl)cc1` (configuration not stated): 688 s; `CCOc1cc(CNc2ccc3[nH]c(=O)[nH]c3c2)cc(Cl)c1OCC`: 700 s; `CCOC(=O)c1[nH]c(C)c(CCC(=O)N2CCC(C(=O)NCc3ccc4c(c3)OCO4)CC2)c1C`: 764 s.
With `Cc1[nH]c(C(=O)N2CCC(CC(=O)N3CCOCC3)CC2)c(C)c1C(=O)OC(C)C`, the RP-LC retention time was found to be 702 s.
As for `Cc1nc(-c2cc(S(=O)(=O)Nc3cccc(Cl)c3F)c(C)s2)cs1`, the RP-LC retention time came out at 1030 s.
The compound `CCOc1ccccc1NC(=O)C1CCN(S(=O)(=O)c2ccc3c(c2)NC(=O)C(CC)O3)CC1` (configuration not stated) returned an RP-LC retention time of 953 s.
With `O=C(NCc1csc(-c2cccs2)n1)C1CCN(C(=O)c2ccc(F)c(F)c2)CC1`, the RP-LC retention time was found to be 770 s.
For `CCC1CN(C(=O)N2CCC(C(=O)NCCN3CCCC3)CC2)c2cc(C)ccc2O1` (configuration not stated), the RP-LC retention time is 649 s.
Next, `O=C(NCc1ccccc1Br)c1ccc(-c2cccnc2)nc1`: 697 s; `CCC(=O)n1nc(C)c(S(=O)(=O)N2CCOCC2)c1C`: 848 s; `Cn1cc(-c2noc(-c3ccc(F)cc3)n2)ccc1=O`: 827 s.
`CC(C)CC(=O)Nc1ccc2nc(N3CCN(Cc4ccccc4F)CC3)cc(C(=O)O)c2c1`: the RP-LC retention time amounted to 603 s.

Source of the values: the METLIN SMRT retention time set (Domingo-Almenara et al. 2019).
